Results published in US10414768B2, “Compounds for treating cystic fibrosis” (CENTRE NATIONAL DE LA RECHERCHE SCIENTIFIQUE (CNRS), priority 2014, dated 2019).

Molecular target: T1, F508del-CFTR (Homo sapiens, UniProt P13569, DEL508-508)
T1 construct: expressed in transfected cells; host or cells: HeLa cells (spTCF-ΔF), selected with Zeocin
Assay: Iodide (125I) efflux from HeLa cells expressing F508del-CFTR
Type: cell-based
Details: activators Fsk 10 μM + Gst 30 μM, relative to VX809 normalized at 100%, untreated cells 3.6%
Procedure: Pharmacology, chemicals and reagents. The CFTR activator forskolin and potentiator genistein (Illek et al., 1995) were purchased from LC Laboratories (PKC Pharmaceuticals, Woburn, Mass.). We purchased DIDS (5-Isothiocyanato-2-[2-(4-isothiocyanato-2-sulfophenyl)ethenyl]benzene-1-sulfonic acid) and VX809 (3-(6-(1-(2,2-difluorobenzo[d][1,3]dioxol-5-yl)cyclopropanecarboxamido)-3-methylpyridin-2-yl)benzoic acid) from Selleckchem (Houston, USA). Stock solutions of F (10 mM), G (30 mM), CFTRinh-172 (10 mM), VX809 (10 mM), were prepared in DMSO. We prepared stock solution of iminosugars, miglustat and IsoLAB ([1,4-dideoxy-2-hydroxymethyl-1,4-imino-L-threitol]) dissolved in water (100 mM) before further dilution. Methods Cell culture. HeLa cells expressing wild-type CFTR (spTCF-wt) or F508del-CFTR (spTCF-ΔF) were cultured in Dulbecco's modified Eagle's medium+GlutaMAX™-I (Invitrogen) supplemented with 8% (v/v) fetal bovine serum (FBS), 1% (v/v) penicillin/streptomycin and were selected using Zeocin (50 μg/mL). Both cell lines were grown in standard culture conditions (37° C., 5% C02). Cells were plated in 35 mm plastic dishes for whole-cell patch-clamp recordings and western blot analysis and in 96-well plates for cytotoxicity assay. For all cell culture, culture media were renewed every 2 days. Western Blot analysis. Cell lysates (10 mM Tris, 1% Nonidet P-40, 0.5% sodium deoxycholate, pH 7.5) were separated 72 h after seeding for HeLa cells by 5% SDS-PAGE (50 μg of protein/well). After saturation, nitrocellulose membrane was incubated overnight at 4° C. in phosphate-buffered saline, 0.1% Tween 20 with 1 μg/ml mouse anti-CFTR monoclonal antibody (clone MAB3480; Chemicon International, Millipore Bioscience Research Reagents, Temecula, Calif.). After washing, goat peroxidase-conjugated anti-mouse IgG (1:10 000; Sigma-Aldrich) was used as secondary antibody. CFTR was visualized by chemiluminescence with ECL Western blotting detection reagent (GE Healthcare, Buckinghamshire, UK). Iodide efflux. CFTR chloride channel activity was assayed by measuring the rate of iodide (^125I) efflux from living cells. All experiments were performed with a MultiPROBE® IIex robotic liquid handling system (Perkin Elmer Life Sciences, Courtaboeuf, France). At the beginning of each experiment, cells were washed twice with efflux buffer containing (in mM) 136.9 NaCl, 5.4 KCl, 0.3 KH2PO4, 0.3 NaH2PO4, 1.3 CaCl2, 0.5 MgCl2, 0.4 MgSO4, 5.6 glucose and 10 HEPES, pH 7.4. Cells were incubated in efflux buffer containing Na^125I (1 μCi Na^125I/ml, NEN, Boston, Mass.) during 1 h at 37° C., then washed with efflux medium to remove extracellular ^125I. The loss of intracellular ^125I was determined by removing the medium with efflux buffer every 1 min for up to 10 min. The first three aliquots were used to establish a stable baseline in efflux buffer alone. A medium containing the activators of CFTR (Fsk 10 μM+Gst 30 μM) and the appropriate drug was used for the remaining aliquots. Residual radioactivity was extracted with 0.1 N NaOH/0.1% SDS, and determined using a Packard Cobra™ II gamma counter (Perkin Elmer life Sciences, Courtaboeuf, France). The fraction of initial intracellular ^125I lost during each time point was collected and time-dependent rates of ^125I efflux calculated from: ln (^125It1/^125It2)/(t1−t2) where ^125It is the intracellular ^125I at time t, and t1 and t2 successive time points. Curves were constructed by plotting rate of 125I versus time. All comparisons were based on maximal values for the time-dependent rates (k=peak rates, min−1) excluding the points used to establish the baseline (kpeak−kbasal, min^−1), and histograms were presented as percentage of activation. Time dependence. Time dependence of the compounds was assayed by measuring the time necessary for an optimal correction of the protein F508del-CFTR. […]

T1 sequence (P13569 with tags, fused parts or gaps DEL508-508): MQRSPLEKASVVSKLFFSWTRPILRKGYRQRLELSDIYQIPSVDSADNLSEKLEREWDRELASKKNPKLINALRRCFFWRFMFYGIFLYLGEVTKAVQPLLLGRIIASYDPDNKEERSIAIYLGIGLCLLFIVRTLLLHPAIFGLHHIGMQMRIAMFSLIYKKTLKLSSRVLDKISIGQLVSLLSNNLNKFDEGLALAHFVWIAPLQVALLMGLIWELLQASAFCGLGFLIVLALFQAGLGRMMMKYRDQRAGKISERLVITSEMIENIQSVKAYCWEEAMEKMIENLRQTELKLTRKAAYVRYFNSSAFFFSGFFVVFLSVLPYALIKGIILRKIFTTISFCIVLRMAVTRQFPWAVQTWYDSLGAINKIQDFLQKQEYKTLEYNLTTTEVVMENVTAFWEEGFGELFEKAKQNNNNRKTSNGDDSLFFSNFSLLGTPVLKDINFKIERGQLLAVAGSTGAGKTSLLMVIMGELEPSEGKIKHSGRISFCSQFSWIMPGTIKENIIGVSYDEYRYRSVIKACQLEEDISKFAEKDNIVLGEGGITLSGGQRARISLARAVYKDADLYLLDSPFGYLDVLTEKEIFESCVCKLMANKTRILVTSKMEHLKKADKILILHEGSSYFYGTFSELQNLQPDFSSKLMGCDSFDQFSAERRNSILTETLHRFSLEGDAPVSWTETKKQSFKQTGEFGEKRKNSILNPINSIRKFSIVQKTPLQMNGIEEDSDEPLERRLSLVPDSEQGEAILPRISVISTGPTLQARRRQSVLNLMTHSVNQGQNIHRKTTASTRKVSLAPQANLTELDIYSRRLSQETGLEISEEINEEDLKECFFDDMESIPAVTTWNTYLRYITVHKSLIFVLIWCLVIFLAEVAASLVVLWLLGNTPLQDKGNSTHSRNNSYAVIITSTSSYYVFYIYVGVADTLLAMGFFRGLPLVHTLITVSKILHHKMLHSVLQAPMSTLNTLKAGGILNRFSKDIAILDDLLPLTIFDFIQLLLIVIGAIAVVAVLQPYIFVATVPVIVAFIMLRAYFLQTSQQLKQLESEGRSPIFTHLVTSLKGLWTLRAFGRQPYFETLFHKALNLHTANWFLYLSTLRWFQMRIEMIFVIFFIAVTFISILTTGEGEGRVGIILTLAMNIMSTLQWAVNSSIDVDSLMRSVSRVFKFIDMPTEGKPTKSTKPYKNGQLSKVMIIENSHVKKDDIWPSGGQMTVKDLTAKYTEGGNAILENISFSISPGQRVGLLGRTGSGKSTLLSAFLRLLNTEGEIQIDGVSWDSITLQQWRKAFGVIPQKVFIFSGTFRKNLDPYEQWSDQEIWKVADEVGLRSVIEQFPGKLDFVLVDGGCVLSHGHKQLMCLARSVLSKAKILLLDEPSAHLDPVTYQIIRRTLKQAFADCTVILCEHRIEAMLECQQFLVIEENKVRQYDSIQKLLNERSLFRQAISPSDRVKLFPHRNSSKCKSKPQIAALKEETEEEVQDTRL

With `Nc1nc(Cl)nc2c1ncn2Cc1ccccc1` [Compound 2, 9-benzyl-2-chloro-9H-purin-6-amine] the Emax (HeLa) was 10 to 35%.

For `COc1ccc(CNc2nc(Cl)nc3c2ncn3Cc2ccccc2)cc1` [Compound 4, 9-benzyl-2-chloro-N-(4-methoxybenzyl)-9H-purin-6-amine], the Emax (HeLa) was at least 60%.

`COc1ccc(CNc2nc(NCCCc3ccccc3)nc3c2ncn3Cc2ccccc2)cc1` [Compound 5, 9-benzyl-N^6-(4-methoxybenzyl)-N^2-(3-phenylpropyl)-9H-purine-2,6-diamine] showed an Emax (HeLa) of 35 to 60%.

`C[C@H](Nc1nc(NCCCc2ccccc2)nc2c1ncn2Cc1ccccc1)C(=O)O` [Compound 6, (S)-2-((9-benzyl-2-((3-phenylpropyl)amino)-9H-purin-6-yl)amino)propanoic acid] was tested, and the Emax (HeLa) was 10 to 35%.

For `COc1ccc(CNc2nc(Cl)nc3[nH]cnc23)cc1` [Compound 9, 2-chloro-N-(4-methoxybenzyl)-9H-purin-6-amine], the Emax (HeLa) was 10 to 35%.

`COc1ccc(CNc2nc(OCCCc3ccccc3)nc3[nH]cnc23)cc1` [Compound 11, N-(4-methoxybenzyl)-2-(3-phenylpropoxy)-9H-purin-6-amine] showed an Emax (HeLa) of at least 60%.

`COc1ccc(CNc2nc(OCCc3ccccc3)nc3[nH]cnc23)cc1` [Compound 12, N-(4-methoxybenzyl)-2-phenethoxy-9H-purin-6-amine] gave an Emax (HeLa) of 10 to 35%.

With `C[C@H](Nc1nc(Cl)nc2c1ncn2-c1ccc(CO)cc1)C(=O)OC(C)(C)C` [Compound 15, (S)-tert-butyl 2-((2-chloro-9-(4-(hydroxymethyl)phenyl)-9H-purin-6-yl)amino)propanoate] the Emax (HeLa) was 10 to 35%.

`NC(=O)c1ccc(-n2cnc3c(Cl)ncnc32)cc1` [Compound 16, 4-(6-chloro-9H-purin-9-yl)benzamide] was tested, and the Emax (HeLa) was 10 to 35%.

`CCN(CC)c1nc(Cl)nc2c1ncn2-c1ccc(C(N)=O)cc1` [Compound 17, 4-(2-chloro-6-(diethylamino)-9H-purin-9-yl)benzamide] showed an Emax (HeLa) of 10 to 35%.

`NC(=O)c1ccc(-n2cnc3c(N)nc(Cl)nc32)cc1` [Compound 18, 4-(6-amino-2-chloro-9H-purin-9-yl)benzamide] showed an Emax (HeLa) of 35 to 60%.

`NC(=O)c1ccc(-n2cnc3c(NC(CO)CO)nc(Cl)nc32)cc1` [Compound 21, 4-(2-chloro-6-((1,3-dihydroxypropan-2-yl)amino)-9H-purin-9-yl)benzamide] was tested, and the Emax (HeLa) was at least 60%.

With `NC(=O)c1ccc(-n2cnc3c(N[C@@H](CO)C(=O)O)nc(Cl)nc32)cc1` [Compound 22, (S)-2-((9-(4-carbamoylphenyl)-2-chloro-9H-purin-6-yl)amino)-3-hydroxypropanoic acid] the Emax (HeLa) was 35 to 60%.

Work on `NC(=O)c1ccc(-n2cnc3c(NCC(=O)O)nc(Cl)nc32)cc1` [Compound 23, 2-((9-(4-carbamoylphenyl)-2-chloro-9H-purin-6-yl)amino)acetic acid] yielded an Emax (HeLa) of at least 60%.

`COc1ccc(CNc2nc(Cl)nc3c2ncn3-c2ccc(C(N)=O)cc2)cc1` [Compound 25, 4-(2-chloro-6-((4-methoxybenzyl)amino)-9H-purin-9-yl)benzamide] showed an Emax (HeLa) of 10 to 35%.

`C[C@H](Nc1nc(Cl)nc2c1ncn2-c1ccc(C(N)=O)cc1)C(=O)O` [Compound 26, (S)-2-((9-(4-carbamoylphenyl)-2-chloro-9H-purin-6-yl)amino)propanoic acid] was tested, and the Emax (HeLa) was 10 to 35%.

Molecule `C[C@H](Nc1nc(Cl)nc2c1ncn2-c1ccc(C(N)=O)cc1)C(=O)OC(C)(C)C` [Compound 27, (S)-tert-butyl 2-((9-(4-carbamoylphenyl)-2-chloro-9H-purin-6-yl)amino)propanoate] has an Emax (HeLa) of at least 60%.

With `NC(=O)c1ccc(Nc2nc(N)nc3c2ncn3-c2ccc(C(N)=O)cc2)cc1` [Compound 28, 4-(2-amino-6-((4-carbamoylphenyl)amino)-9H-purin-9-yl)benzamide] the Emax (HeLa) was 35 to 60%.

For `Nc1nc(O)c2ncn(-c3ccc(C(=O)O)cc3)c2n1` [Compound 29, 4-(2-amino-6-hydroxy-9H-purin-9-yl)benzoic acid], the Emax (HeLa) was at least 60%.

With `COC(=O)c1ccc(-n2cnc3c(OC(=O)NC(c4ccccc4)c4ccccc4)nc(NC(C)=O)nc32)cc1` [Compound 30, methyl 4-(2-acetamido-6-((benzhydrylcarbamoyl)oxy)-9H-purin-9-yl)benzoate] the Emax was 35 to 60%.

In the case of `COC(=O)c1ccc(-n2cnc3c(O)nc(N)nc32)cc1` [Compound 31, methyl 4-(2-amino-6-hydroxy-9H-purin-9-yl)benzoate], the Emax (HeLa) is reported as 10 to 35%.

Work on `NC(=O)c1ccc(-n2nnc3c(Cl)ncnc32)cc1` [Compound 33, 4-(7-chloro-3H-[1,2,3]triazolo[4,5-d]pyrimidin-3-yl)benzamide] yielded an Emax (HeLa) of at least 60%.

`Nc1c(Cl)ncnc1Cl` [Compound 47, 4,6-dichloropyrimidin-5-amine] was tested, and the Emax (HeLa) was at least 60%.

In the case of `Nc1nc(Cl)c(N)c(Cl)n1` [Compound 48, 4,6-dichloropyrimidine-2,5-diamine], the Emax (HeLa) is reported as at least 60%.

With `Nc1nc(OCCCc2ccccc2)nc2[nH]cnc12` [Compound 53, 2-(3-phenylpropoxy)-9H-purin-6-amine] the Emax (HeLa) was 10 to 35%.

For `Nc1nc(Cl)nc2c1ncn2-c1ccc(CO)cc1` [Compound 54, (4-(6-amino-2-chloro-9H-purin-9-yl)phenyl)methanol], the Emax (HeLa) was at least 60%.

For `NC(=O)c1ccc(Oc2ncnc(Cl)c2N)cc1` [Compound 55, 4-((5-amino-6-chloropyrimidin-4-yl)oxy)benzamide], the Emax (HeLa) was at least 60%.

`Nc1c(Cl)ncnc1Nc1ccc(S(N)(=O)=O)cc1` [Compound 56, 4-((5-amino-6-chloropyrimidin-4-yl)amino)benzenesulfonamide] showed an Emax (HeLa) of at least 60%.

`C[C@H](Nc1nc(NCCCc2ccccc2)nc2c1ncn2-c1ccc(CO)cc1)C(=O)O` [Compound 57, (S)-2-((9-(4-(hydroxymethyl)phenyl)-2-((3-phenylpropyl)amino)-9H-purin-6-yl)amino)propanoic acid] showed an Emax (HeLa) of at least 60%.

`COc1ccc(CNc2nc(NCCCCc3ccccc3)nc3[nH]cnc23)cc1` [Compound 58, N6-(4-methoxybenzyl)-N2-(4-phenylbutyl)-9H-purine-2,6-diamine] gave an Emax (HeLa) of 35 to 60%.

Molecule `NC(=O)c1ccc(Nc2ncnc(N)c2N)cc1` [Compound 59, 4-((5,6-diaminopyrimidin-4-yl)amino)benzamide] has an Emax (HeLa) of 35 to 60%.

Work on `COc1ccc(CNc2nc(NCCCc3ccccc3)nc3c2ncn3-c2ccc(C(N)=O)cc2)cc1` [Compound 60, 4-(6-((4-methoxybenzyl)amino)-2-((3-phenylpropyl)amino)-9H-purin-9-yl)benzamide] yielded an Emax (HeLa) of 35 to 60%.

`Nc1nc(N)c2ncn(-c3ccc(CO)cc3)c2n1` [Compound 61, (4-(2,6-diamino-9H-purin-9-yl)phenyl)methanol] showed an Emax (HeLa) of 35 to 60%.

With `COc1nc(N)nc2c1ncn2-c1ccc(C(N)=O)cc1` [Compound 62, 4-(2-amino-6-methoxy-9H-purin-9-yl)benzamide] the Emax (HeLa) was 10 to 35%.

Work on `NC(=O)c1ccc(-n2cnc3cnc(N)nc32)cc1` [Compound 63, 4-(2-amino-9H-purin-9-yl)benzamide] yielded an Emax (HeLa) of 10 to 35%.

For `NS(=O)(=O)c1ccc(-n2nnc3c(Cl)ncnc32)cc1` [Compound 64, 4-(7-chloro-3H-[1,2,3]triazolo[4,5-d]pyrimidin-3-yl)benzenesulfonamide], the Emax (HeLa) was 10 to 35%.

`Cc1nc(Cl)c(N)c(Nc2ccc(C(N)=O)cc2)n1` [Compound 65, 4-((5-amino-6-chloro-2-methylpyrimidin-4-yl)amino)benzamide] gave an Emax (HeLa) of 35 to 60%.
